Results taken from patent US11000033B2, “Ketone or oxime compound, and herbicide” (NISSAN CHEMICAL CORPORATION, priority 2014, dated 2021).

Tests used:
Type in all cases: in vivo
Details in all cases: application herbicide amount 320 g/ha
[1] = test system: Echinochloa crus-galli var. crus-galli; assay: Test Example 3: herbicidal effect by foliage application, Wagner pot (symbol H)
Procedure: (§1) Herbicidal Effect Test by Foliage Application
(§2) After alluvial soil was placed into 1/10000 are of Wagner pot, water was poured and mixed to form a submerged condition having a water depth of 0.1 cm to 0.5 cm. Seeds of Echinochloa crus-galli var. crus-galli, Leptochloa chinensis, Cyperus difformis, and rice were sowed and the pot was placed in the greenhouse of 25° C. to 30° C. to grow the plants. After the plants were grown for 14 days, the emulsion agent of the compound of the present invention prepared in accordance with Formulation Example 2 was diluted with water so as to be a predetermined herbicide amount and the diluted emulsion agent was uniformly applied to a foliage part with a small-size spray. 3 weeks later from the herbicide application, the effect to each plant was investigated in accordance with the criteria of Test Example 1.

[2] = test system: Leptochloa chinensis; assay: Test Example 3: herbicidal effect by foliage application, Wagner pot (symbol D)
Procedure: as §1, §2

[3] = test system: directly sowed rice plant; assay: Test Example 3: effect on crop by foliage application, Wagner pot (symbol b)
Procedure: as §1
After alluvial soil was placed into 1/10000 are of Wagner pot, water was poured and mixed to form a submerged condition having a water depth of 0.1 cm to 0.5 cm. Seeds of Echinochloa crus-galli var. crus-galli, Leptochloa chinensis, Cyperus difformis, and rice were sowed and the pot was placed in the greenhouse of 25° C. to 30° C. to grow the plants.

[4] = test system: Cyperus difformis; assay: Test Example 3: herbicidal effect by foliage application, Wagner pot (symbol E)
Procedure: as §1, §2

[5] = test system: Echinochloa oryzacola Vasing.; assay: Test Example 1: herbicidal activity, application before weed generation in submerged conditions (symbol A)
From the text: (§3) Herbicidal Activity Test by Application Before Weed Generation in Submerged Conditions
(§4) After alluvial soil was placed into 1/10000 are of Wagner pot, water was poured and mixed to form a submerged condition having a water depth of 4 cm. Seeds of Echinochloa oryzacola Vasing., Scirpus juncoides, and Monochoria vaginalis were sowed in a mixed manner in the above pot and thereafter 2.5 leaf stage rice plant seedlings were transplanted thereto. On the day of sowing seeds, the emulsion agent of the compound of the present invention prepared in accordance with Formulation Example 2 was diluted with water so as to be a predetermined herbicide amount and the diluted emulsion agent was applied to the surface of the water. The pot was placed in a greenhouse of 25° C. to 30° C. to grow plant. 3 weeks later from the herbicide application, the effect to each plant was investigated in accordance with the following criteria.
(§5) 5 Herbicidal ratio of 90% or more (almost completely withered)
(§6) 4 Herbicidal ratio of 70% or higher and lower than 90%
(§7) 3 Herbicidal ratio of 40% or higher and lower than 70%
(§8) 2 Herbicidal ratio of 20% or higher and lower than 40%
(§9) 1 Herbicidal ratio of 5% or higher and lower than 20%
(§10) 0 Herbicidal ratio of 5% or lower (almost no effect)

[6] = test system: Scirpus juncoides; assay: Test Example 1: herbicidal activity, application before weed generation in submerged conditions (symbol B)
From the text: as §3, §4, §5, §6, §7, §8, §9, §10

[7] = test system: Monochoria vaginalis; assay: Test Example 1: herbicidal activity, application before weed generation in submerged conditions (symbol C)
From the text: as §3, §4, §5, §6, §7, §8, §9, §10

[8] = test system: transplanted rice plant; assay: Test Example 1: effect on crop, application before weed generation in submerged conditions (symbol a)
Procedure: as §3
as §4, with “On the day of sowing seeds, the emulsion agent of the compound of the present invention prepared in accordance with Formulation Example 2 was diluted with water so as to be a predetermined herbicide amount and the diluted emulsion agent was applied to the surface of the water.” left out
as §5, §6, §7, §8, §9, §10

Structure (SMILES): CON=C(C)CC1CC(OC(=O)N(c2ccccc2)c2ccccc2)=C(c2c(C)cc(C)cc2C)C1=O (centres unmarked) [1-157]
- herbicidal effect on H (Echinochloa crus-galli var. crus-galli), grade 0-5 [1]: 0 (Herbicidal ratio of 5% or lower (almost no effect))
- herbicidal effect on D (Leptochloa chinensis), grade 0-5 [2]: 4 (Herbicidal ratio of 70% or higher and lower than 90%)
- effect on crop b (directly sowed rice plant), grade 0-5 [3]: 0 (Herbicidal ratio of 5% or lower (almost no effect))

Structure (SMILES): COC(=O)C(C(C)=O)C1CC(O)=C(c2c(F)cc(Br)cc2OC)C1=O (centres unmarked) [7-028]
- H (Echinochloa crus-galli var. crus-galli) herbicidal effect grade ([1]; Table 24): 0 (Herbicidal ratio of 5% or lower (almost no effect))
- D (Leptochloa chinensis) herbicidal effect grade ([2]; Table 24): 0 (Herbicidal ratio of 5% or lower (almost no effect))
- E herbicidal effect grade ([4]; Table 24): 0 (Herbicidal ratio of 5% or lower (almost no effect))
- b (directly sowed rice plant) effect on crop grade ([3]; Table 24): 0 (Herbicidal ratio of 5% or lower (almost no effect))

Structure (SMILES): CON=C(C)CC1CC(OC(=S)N(C)C)=C(c2c(C)cc(C)cc2C)C1=O (centres unmarked) [1-141]
- herbicidal effect on H (Echinochloa crus-galli var. crus-galli), grade 0-5 [1]: 2 (Herbicidal ratio of 20% or higher and lower than 40%)
- herbicidal effect on D (Leptochloa chinensis), grade 0-5 [2]: 0 (Herbicidal ratio of 5% or lower (almost no effect))
- effect on crop b (directly sowed rice plant), grade 0-5 [3]: 1 (Herbicidal ratio of 5% or higher and lower than 20%)

Structure (SMILES): CON=C(CC1CC(O)=C(c2c(C)cc(C)cc2C)C1=O)c1ccc(C)cc1 (centres unmarked) [1-164]
- herbicidal effect on H (Echinochloa crus-galli var. crus-galli), grade 0-5 [1]: 2 (Herbicidal ratio of 20% or higher and lower than 40%)
- herbicidal effect on D (Leptochloa chinensis), grade 0-5 [2]: 3 (Herbicidal ratio of 40% or higher and lower than 70%)
- herbicidal effect on E, grade 0-5 [4]: 0 (Herbicidal ratio of 5% or lower (almost no effect))
- effect on crop b (directly sowed rice plant), grade 0-5 [3]: 4 (Herbicidal ratio of 70% or higher and lower than 90%)

Structure (SMILES): CC(=O)CC1CC(O)=C(c2c(C)cc(OCc3ccncc3)cc2C)C1=O (centres unmarked) [7-021]
- herbicidal effect on H (Echinochloa crus-galli var. crus-galli), grade 0-5 [1]: 2 (Herbicidal ratio of 20% or higher and lower than 40%)
- herbicidal effect on D (Leptochloa chinensis), grade 0-5 [2]: 2 (Herbicidal ratio of 20% or higher and lower than 40%)
- herbicidal effect on E, grade 0-5 [4]: 0 (Herbicidal ratio of 5% or lower (almost no effect))
- effect on crop b (directly sowed rice plant), grade 0-5 [3]: 0 (Herbicidal ratio of 5% or lower (almost no effect))

Structure (SMILES): CON=C(CCl)CC1CC(OC)=C(c2c(C)cc(C)cc2C)C1=O (centres unmarked) [1-077]
- Herbicidal effect grade, A: Echinochloa oryzacola Vasing. [5]: 1 (Herbicidal ratio of 5% or higher and lower than 20%)
- Herbicidal effect grade, B: Scirpus juncoides [6]: 2 (Herbicidal ratio of 20% or higher and lower than 40%)
- Herbicidal effect grade, C: Monochoria vaginalis [7]: 0 (Herbicidal ratio of 5% or lower (almost no effect))
- Effect grade on crop, a: transplanted rice plant [8]: 1 (Herbicidal ratio of 5% or higher and lower than 20%)

Structure (SMILES): CC(=O)CC1CC(O)=C(c2c(C)cc(C=Cc3ccccc3)cc2C)C1=O (centres unmarked) [7-023]
- Herbicidal effect grade, A: Echinochloa oryzacola Vasing. [5]: 2 (Herbicidal ratio of 20% or higher and lower than 40%)
- Herbicidal effect grade, B: Scirpus juncoides [6]: 0 (Herbicidal ratio of 5% or lower (almost no effect))
- Herbicidal effect grade, C: Monochoria vaginalis [7]: 0 (Herbicidal ratio of 5% or lower (almost no effect))
- Effect grade on crop, a: transplanted rice plant [8]: 1 (Herbicidal ratio of 5% or higher and lower than 20%)
- herbicidal effect on H (Echinochloa crus-galli var. crus-galli), grade 0-5 [1]: 0 (Herbicidal ratio of 5% or lower (almost no effect))
- herbicidal effect on D (Leptochloa chinensis), grade 0-5 [2]: 5 (Herbicidal ratio of 90% or more (almost completely withered))
- herbicidal effect on E, grade 0-5 [4]: 0 (Herbicidal ratio of 5% or lower (almost no effect))
- effect on crop b (directly sowed rice plant), grade 0-5 [3]: 0 (Herbicidal ratio of 5% or lower (almost no effect))

Structure (SMILES): CON=C(CCl)CC1CC(O)=C(c2c(C)cc(C)cc2C)C1=O (centres unmarked) [1-084]
- herbicidal effect on H (Echinochloa crus-galli var. crus-galli), grade 0-5 [1]: 2 (Herbicidal ratio of 20% or higher and lower than 40%)
- herbicidal effect on D (Leptochloa chinensis), grade 0-5 [2]: 0 (Herbicidal ratio of 5% or lower (almost no effect))
- herbicidal effect on E, grade 0-5 [4]: 0 (Herbicidal ratio of 5% or lower (almost no effect))
- effect on crop b (directly sowed rice plant), grade 0-5 [3]: 1 (Herbicidal ratio of 5% or higher and lower than 20%)

Structure (SMILES): CON=C(C)CC1CC(O)=C(c2c(C)cc(OCc3ccncc3)cc2C)C1=O (centres unmarked) [6-070]
- herbicidal effect on H (Echinochloa crus-galli var. crus-galli), grade 0-5 [1]: 0 (Herbicidal ratio of 5% or lower (almost no effect))
- herbicidal effect on D (Leptochloa chinensis), grade 0-5 [2]: 4 (Herbicidal ratio of 70% or higher and lower than 90%)
- herbicidal effect on E, grade 0-5 [4]: 0 (Herbicidal ratio of 5% or lower (almost no effect))
- effect on crop b (directly sowed rice plant), grade 0-5 [3]: 0 (Herbicidal ratio of 5% or lower (almost no effect))
